According to patent US10334847B2, “Antifungal composition” (The University of Sussex, priority 2014, dated 2019):

Key:
[1] = system: Chalara fraxinea; assay: Agar plate growth inhibition assay of fungicides against fungi (Chalara fraxinea); assay type: cell-based; settings: Chalara fraxinea on YPG agar plates, 3-5 days at 30° C.; compounds used separately or in combination
Experimental: Example 1—Assays Used to Test Fungicides Against Fungi (e.g. Chalara fraxinea)
• 2% Yeast extract • 2% Peptone • 2% D-glucose • 2% agar YPG • 2% Yeast extract • 2% Peptone • 2% Glycerol • 2% agar Fungicide Formulations
Colletochlorin B was synthesised using the methodology described in WO 2013/160670 with reference to FIG. 7. Then, 1 μM of Colletochlorin B is separately combined with […] of each of the following fungicides to produce seven different formulations:— • 1) Metalaxyl—belongs to the phenylamide fungicide family (Sukul, P. and M. Spiteller (2000) “Metalaxyl: persistence, degradation, metabolism, and analytical methods.” Rev Environ Contam Toxicol 164: 1-26); • 2) Azoxystrobin—belongs to the strobilurin family; • 3) DMI (DeMethylation Inhibitor); • 4) CuPC33—A copper based compound; • 5) Boscalid; • 6) Difenconcozole; and • 7) Pyraclostrobin. Methods • 1. Yeast strains are streaked out and grown on YPD agar plates for 3 days at 30° C. • 2. 5 mL of YPD liquid media is inoculated with a fungal strain of interest (e.g. Chalara fraxinea) and grown for 3 days at 30° C. with shaking at 180 rpm. • 3. 1 μL inoculum of the fungal strain is added to 9999 μL YPG liquid media and gently mixed. • 4. […] The degree of inhibition of fungal/yeast growth caused by the inhibitors is then assessed. […]

[2] = system: microbial alternative oxidase (AOX); settings: disclosed in WO 2013/160670; cited from earlier work
[3] = system: S. cerevisiae; assay: Agar plate growth inhibition assay against S. cerevisiae; assay type: cell-based; settings: S. cerevisiae on YPG agar plates, 1 μM of each compound, alone or in combination, 3-5 days at 30° C.; FIG. 8
Experimental: The inventors tested the efficacy of a combination of Colletochlorin B and azoxystrobin on the growth of S. cerevisiae. As in Example 1, Colletochlorin B was synthesised using the methodology described in WO 2013/160670 with reference to FIG. 7.
• 1. S. cerevisiae was streaked out and grown up on YPD agar plates for 3 days at 30° C. • 2. 5 mL of YPG liquid media was inoculated with S. cerevisiae from the YPD plates and grown for 3 days at 30° C. with shaking at 180 rpm to produce a cell culture. • 3. Approximately 5×10^5 cells of the S. cerevisiae were then plated out onto YPG agar plates containing 1 μM Colletochlorin B, or 1 μM azoxystrobin, or a combination of 1 μM Colletochlorin and 1 μM azoxystrobin. • 4. The plates were incubated for 3-5 days at 30° C. • 5. The degree of inhibition of fungal/yeast growth caused by the inhibitors was then assessed.
For each plate, the yeast colony grown in the centre at the top was not grown in the presence of any inhibitor acting as a negative control. However, for the plate shown in FIG. 8A, the colony shown on the lower left was grown in the presence of only 1 μM Colletochlorin B, and for the plate shown in FIG. 8B, the colony shown on the lower left was grown in the presence of only 1 μM azoxystrobin. […]

[4] = system: cytochrome bc1 complex; settings: disclosed in WO 2013/160670; cited from earlier work

Structure (SMILES)	degree of inhibition of fungal growth [1]	inhibition of AOX [2]	degree of inhibition of fungal/yeast growth [3]	inhibition of cytochrome bc1 complex [4]
CC(C)=CCC/C(C)=C/Cc1c(O)c(Cl)c(C)c(C=O)c1O [Colletochlorin B]	partial growth inhibition	particularly effective inhibition	partial growth inhibition	particularly effective inhibition
CO/C=C(/C(=O)OC)c1ccccc1Oc1cc(Oc2ccccc2C#N)ncn1 [Azoxystrobin, reference compound]	partial growth inhibition		partial growth inhibition	
